This data set relates to CCRIS mutagenicity, Ames/micronucleus/aberration tests. Briefly: CCRIS mutagenicity studies. As to conditions: Test System: AMES SALMONELLA TYPHIMURIUM, Method: STANDARD PLATE.

Molecules are shown by their SMILES. Calls of active or inactive are those of the source. The rule behind the calls is not given here.

In the case of `Nc1ccc(/C=C\c2ccc([N+](=O)[O-])cc2)cc1`, the mutagenic call (Strain/Indicator: TA98(1,8-DNP6), Metabolic Activation: NONE) was “inactive; negative”; the mutagenic call (Strain/Indicator: TA98(1,8-DNP6), Metabolic Activation: S-9) is “active; positive”; the mutagenic call (Strain/Indicator: TA98, Metabolic Activation: NONE) was “active; positive”; the mutagenic call (Strain/Indicator: TA98, Metabolic Activation: RAT, LIVER, S-9, AROCLOR 1254) was “active; positive”; the mutagenic call (Strain/Indicator: TA98, Metabolic Activation: S-9) is “active; positive”; the mutagenic call (Strain/Indicator: TA100, Metabolic Activation: NONE) was “inactive; negative”. In addition, the mutagenic call (Strain/Indicator: TA100, Metabolic Activation: RAT, LIVER, S-9, AROCLOR 1254) is “active; positive” and the mutagenic call (Strain/Indicator: TA100, Metabolic Activation: S-9) was “active; positive”.

(Values after PubChem BioAssay AID1259407 (Chemical Carcinogenesis Research Information System (CCRIS), 2018).)
